Measured values published in PubChem BioAssay AID2305 (GlaxoSmithKline (GSK), 2010).

system: P. falciparum 3D7 growth, pLDH absorbance; test: P. falciparum 3D7 growth inhibition, dose response, strain 3D7 (AID 2305)

| Compound | IC50 [nM] |
| --- | --- |
| CCCOc1ccc(CNCCCCCCNCc2ccc(OCCC)c3ccccc23)c2ccccc12 | 410 |
| COc1cc(CCNc2nc(NCc3ccccc3-c3ccccc3)nc(N3CCC(N)CC3)n2)ccc1O | 820 |
| CNc1c2c(nc3ccc(NC(=O)CCCCCCc4ccccc4)cc13)CCCC2 | 920 |
| CCCCc1ccc(C(=O)NC2CCN(C[C@H](O)c3ccnc4ccc(OC)cc34)CC2)cc1 | 730 |
| CCCCNCC(O)COc1ccccc1-c1ccc(N/N=C/c2cccc3ccccc23)nn1 (stereo unspecified) | 890 |
| CC(C)(CNCCOc1ccc(Cl)cc1)c1nc(-c2ccc(Cl)c(O)c2)c(-c2ccnc(N)n2)[nH]1 | 830 |
| CCCc1cc(Cc2cnc(N)nc2N)cc(CCC)c1O | 280 |
| Cc1cccc2[nH]c(-c3ccc(-c4ccc(NC(=O)Nc5ccc(Cl)cc5)cc4)s3)nc12 | 150 |
| CC(C)Sc1nc2c(c(=O)n1Cc1ccco1)C1(CCCCC1)Cc1ccccc1-2 | 250 |
| COc1ccc2nc(-c3ccccc3)cc(NN=Cc3ccncc3)c2c1 | 810 |
| CCN1CCN(c2cc(C)c3cc(NC(=O)c4cccc(C(F)(F)F)c4)ccc3n2)CC1 | 570 |
| c1ccc2c(CNc3ccnc(NCc4cccc5ccccc45)n3)cccc2c1 | 560 |
| CC(CNCc1cn(Cc2cc(Br)cc(Br)c2)c2ccccc12)CNc1cc(=O)c2ccccc2[nH]1 (stereo unspecified) | 460 |
| COc1ccc(NC(=O)c2ccc(-c3cc(NC(=O)c4ccnc(N5CCCC5)c4)ccc3C)s2)cc1N1CCN(C)CC1 | 250 |
| CS(=O)(=O)N(c1cccc(F)c1)c1cc(C(=O)N[C@@H](Cc2ccccc2)[C@H](O)CNCc2cccc(C(F)(F)F)c2)cc(N2CCCC2=O)c1 | 910 |
| CCOc1ccc(Br)cc1/C=C/C(=O)Nc1ccc2c(c1)CN(C)CCC2 | 820 |
| Oc1ccccc1-c1nc2cccnc2n1CCc1cccc(C(F)(F)F)c1 | 1270 |
| O=c1cc(NCCCNCc2cc(F)cc(C(F)(F)F)c2)[nH]c2ccccc12 | 1200 |
| CC(C)(C)NC(=O)COC(=O)c1c2c(nc3ccccc13)C(=Cc1ccc3c(c1)OCO3)CCC2 | 740 |
| Cc1[nH]c(C)c(-c2ccc(-c3ccc(F)cc3)cc2)c(=O)c1Br | 1070 |
| COc1c(C2CCN(CCN3CCC(NC(=O)c4ccc(-c5ccc(C(F)(F)F)cc5)cc4)CC3)CC2)ccc2c1CCCC2 | 1360 |
| CNc1ccc(CNCc2ccc(-c3ccc(-c4nc5ccc(C(F)(F)F)cc5[nH]4)cc3)cc2)cc1 | 170 |
| OC(CN1CCN(Cc2ccccc2)CC1)Cn1c(-c2ccccc2)c(-c2ccccc2)c2ccccc21 (stereo unspecified) | 710 |
| OC(CNC1CCCCC1)Cn1c2ccc(Br)cc2c2cc(Br)ccc21 (stereo unspecified) | 300 |

| Compound | IC50 [nM] |
| --- | --- |
| OC(c1cc(C(F)(F)F)nc2c(C(F)(F)F)cccc12)C1CCCCN1 (stereo unspecified) | 70 |
| Cc1nnsc1C(=O)Nc1cccc(-c2ccc(-c3nc4c(C)cccc4[nH]3)s2)c1 | 1120 |
| COc1ccc(-c2cccc(NC(=O)c3ccc(Cl)cc3)c2)cc1CN1CCNCC1 | 840 |
| COc1ccc(Cl)cc1NC(=O)C(C)N1CCN(S(=O)(=O)c2ccccc2F)CC1 (stereo unspecified) | 670 |
| O=C(Nc1cccc(-c2ccc(-c3nc4ccc(F)cc4[nH]3)cc2)c1)c1ccncc1 | 280 |
| Nc1nc(Cc2ccc(Cl)cc2)nc(Cc2ccc(Cl)cc2)n1 | 930 |
| CC[C@H]1CN2CC[C@H]1C[C@H]2[C@H](O)c1cc(-c2cccc(C)c2)nc2ccc(OC)cc12 | 160 |
| NC1CCN(c2nc(NCCCc3ccc(O)cc3)nc(NCc3cccc4ccccc34)n2)CC1 | 720 |
| CN(C)CCCOc1ccc(CN2CC[C@H](NC(=O)c3ccc(Cl)c(Cl)c3)C2)cc1Cl | 960 |
| CCCc1ccc(C(=O)N2[C@@H](c3nccs3)[C@@H](C(N)=O)C[C@@]2(CC(C)C)C(=O)O)cc1 | 160 |
| O=C(Nc1ccc(Br)cc1)c1cc(Br)ccc1NS(=O)(=O)c1ccc(C(F)(F)F)cc1 | 180 |
| Cc1[nH]c2ccc([N+](=O)[O-])cc2c1C1=CCN(C)CC1 | 330 |
| CC1CCNc2ccc(Cc3cnc(N)nc3N)cc21 (stereo unspecified) | 1040 |
| O=C(Nc1ccc(-c2ccc(-c3nc4ccc(C(F)(F)F)cc4[nH]3)cc2)cc1)Nc1ccc(F)c(F)c1F | 220 |
| Nc1nccc2ccc(-c3cccc(O)c3)cc12 | 640 |
| CC(C)[C@H](NCC(=O)c1ccccc1)C(=O)O | 780 |
| CC=CCON1C(N)=NC(N)=NC1(C)C | 30 |
| FC(F)(F)c1cccc(CNCC2CCN(CC3CCCCC3)CC2)c1 | 400 |
| O=C(/C=C/c1cccc(C(F)(F)F)c1)NCCCCCN1CCC(c2c[nH]c3ccccc23)CC1 | 840 |
| CCn1c(Cc2ccccc2)nnc1Sc1ccc([N+](=O)[O-])c(C#N)c1 | 1010 |
| Cc1cc(=O)c(-c2ccc(OCc3ccc(OC(F)(F)F)cc3)cc2)c(C)[nH]1 | 740 |
| Nc1ccc(-c2nc3c(ccc4ccccc43)[nH]2)cc1 | 940 |
| Cn1nc(-c2ccc(CN[C@@H]3CCc4ccc(O)cc43)cc2)c2cnc(NC3CCCC3)nc21 | 1120 |
| O=C(N[C@H](Cc1ccc(Cl)cc1)C(=O)N1CCN(c2ccnc3cc(Cl)ccc23)CC1)[C@H]1Cc2ccccc2CN1 | 420 |

| Compound | IC50 [nM] |
| --- | --- |
| c1ccc(Oc2ccc(Nc3ccnc(Nc4ccc5cn[nH]c5c4)n3)cc2)cc1 | 730 |
| Nc1nc(N)c2c(Oc3ccc(Cl)c(Cl)c3)cccc2n1 | 870 |
| O=C(NC1CC1)c1cnc(N2CCN(Cc3ccc(Cl)cc3)CC2)c(Cl)c1 | 850 |
| O=C(Nc1ccc(-c2ccccc2)cc1)Nc1cccc(Cn2nc(Cl)c(N3CCCNCC3)cc2=O)c1 | 680 |
| Cn1nccc1C(=O)NCCNCc1cccc(-c2cccc(-c3nc4ccc(C(F)(F)F)cc4[nH]3)c2)c1 | 170 |
| CS(=O)(=O)c1ccc2c(c1)CCN(CCC1CCC(NC(=O)C(=Cc3cccc(C#N)c3)c3ccc(-c4ccccc4)cc3)CC1)CC2 (stereo unspecified) | 840 |
| COc1ccc2ccccc2c1C=NNc1ccnc2cc(Cl)ccc12 | 610 |
| COc1ccc(-c2cccc(NC(=O)c3cccc(Cl)c3)c2)cc1CN1CCN(C)CC1 | 760 |
| COc1ccc(OC)c(Cc2c(C)nc3nc(N)nc(N)c3c2C)c1 | 860 |
| O=C(N[C@@H](Cc1ccccc1)[C@H](O)CNCCC(F)(F)F)c1cccc(CCC2CC2)c1 | 1020 |
| CN(C)c1cccc(-c2cnc3ccc(NCc4cccc(Cl)c4)nn23)c1 | 700 |
| COc1cc2c(cc1OC)C(C(=O)Nc1cc(OC)c(OC)c(OC)c1)C(c1ccc(SC)cc1)N(C)C2=O (stereo unspecified) | 990 |
| Cc1ccccc1NC(=O)NC1CCN(CCCCCNC(=O)/C=C/c2ccc(Cl)c(Cl)c2)CC1 | 770 |
| CN(C(=O)Nc1ccc(C(F)(F)F)cc1)C1CCN(CCCCCNC(=O)/C=C/c2ccc(Cl)c(Cl)c2)CC1 | 330 |
| CC(C)CC(=O)N1CCNC[C@@H]1C(=O)NCCSCc1c(F)cccc1Cl | 1200 |
| Cc1cccc2[nH]c(-c3cccc(-c4ccc(C(=O)N5CCCCC5C(C)O)cc4)c3)nc12 (stereo unspecified) | 370 |
| O=C(Nc1ccc(CN2CCN(S(=O)(=O)c3cccc(Cl)c3)CC2)cc1)c1cccs1 | 1080 |
| COc1cc(Cc2cnc(N)nc2N)cc(OCCCN2C(=O)c3ccccc3C2=O)c1OC | 990 |
| CC(C(=O)OCCOCn1cnc2c(=O)[nH]c(N)nc21)N(C)C(=O)OC(C)(C)C (stereo unspecified) | 1000 |
| Cc1cccc2[nH]c(-c3cccc(-c4ccc(NC(=O)CS(C)(=O)=O)cc4)c3)nc12 | 1000 |
| COc1ccc(-c2cccc(CNCc3ccc(F)cc3)c2)cc1S(=O)(=O)NCCN1CCCC1 | 1850 |
| OC1CCN(c2cc(-c3ccccn3)nc(-c3ccccn3)n2)CC1 | 1050 |
| O=C(Cc1cccc(O)c1)NCC(Cc1ccc(O)cc1)c1ccccc1 (stereo unspecified) | 640 |
